In this assay the target is T1, Recombinant full length human OGA enzyme (Homo sapiens, UniProt O60502).
T1 construct: Recombinant full length human OGA enzyme; purchased Origene
T1 sequence (O60502 1-916): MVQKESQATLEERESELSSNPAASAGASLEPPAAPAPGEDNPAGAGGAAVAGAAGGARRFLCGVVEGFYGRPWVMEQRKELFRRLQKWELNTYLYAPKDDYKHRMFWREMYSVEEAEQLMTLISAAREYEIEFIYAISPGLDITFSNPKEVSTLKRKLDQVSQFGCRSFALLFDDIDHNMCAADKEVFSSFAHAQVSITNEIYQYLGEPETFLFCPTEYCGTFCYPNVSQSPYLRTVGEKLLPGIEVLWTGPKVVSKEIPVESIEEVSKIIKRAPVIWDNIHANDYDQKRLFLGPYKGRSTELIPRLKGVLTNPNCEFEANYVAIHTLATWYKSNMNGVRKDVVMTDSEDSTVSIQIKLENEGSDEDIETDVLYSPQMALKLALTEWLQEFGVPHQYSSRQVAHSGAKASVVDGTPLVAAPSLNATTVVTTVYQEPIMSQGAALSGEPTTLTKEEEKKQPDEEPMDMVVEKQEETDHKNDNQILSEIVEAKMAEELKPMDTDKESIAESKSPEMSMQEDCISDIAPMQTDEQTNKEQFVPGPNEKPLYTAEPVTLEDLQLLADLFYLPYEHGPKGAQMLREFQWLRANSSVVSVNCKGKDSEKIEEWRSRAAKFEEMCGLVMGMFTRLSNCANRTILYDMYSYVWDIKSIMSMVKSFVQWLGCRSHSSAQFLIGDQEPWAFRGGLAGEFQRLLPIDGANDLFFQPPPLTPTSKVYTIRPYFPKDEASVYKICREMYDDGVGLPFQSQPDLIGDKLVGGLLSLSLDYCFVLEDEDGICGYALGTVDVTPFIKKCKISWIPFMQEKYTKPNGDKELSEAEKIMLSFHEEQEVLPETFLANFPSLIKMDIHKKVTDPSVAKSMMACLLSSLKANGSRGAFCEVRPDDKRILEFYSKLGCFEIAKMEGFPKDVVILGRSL
Kind of assay: OGA Enzyme Inhibition Biochemical Assay. The note with it: 1 nM OGA, 100 μM 4-MUGlcNAc (Km), pH 6.4, 90 minutes at room temperature, 10-point dose-response starting from 20 μM. As for the experimental part:
OGA Enzyme Inhibition Biochemical Assay
Recombinant full length human OGA enzyme was purchased from Origene. 4-MUGlCNAc substrate was purchased from Sigma. All other reagents were purchased from Sigma or Fisher. Assay buffer consists of the Mcllvaine buffer system, pH 6.4 (0.2M Na2HPO4 mixed with 0.1M citric acid) and 0.01% BSA. Reactions consist of 1 nM OGA, 100 μM 4-MUGlcNAc (Km), and compound in a final volume of 10 μl. Reactions were incubated for 90 minutes at room temperature and quenched with […] of 3M glycine, pH 10 and read on a Perkin Elmer Envision plate reader (Ex: 355 nm/Em: 460 nm). Compounds were tested with a 10-point dose-response starting from 20 μM with a 4-fold dilution. Data was fit using GraphPad Prism using a 4-parameter fit with variable slope.
Broadly, the IC50 is the concentration that inhibits the measured activity by half. For the molecule `CC(=O)Nc1ncc(CN2C[C@@H](Oc3ccc(F)cn3)[C@H]2C)s1` [Example 2-8, N-(5-(((2R,3R)-3-((5-fluoropyridin-2-yl)oxy)-2-methylazetidin-1-yl)methyl)thiazol-2-yl)acetamide], the IC50 is 0.45 µM.
To `COc1cc(N[C@H]2CN(Cc3cnc(NC(C)=O)s3)[C@@H]2C)ccn1` [Example 2-17, N-(5-(((2R,3S)-3-((2-methoxypyridin-4-yl)amino)-2-methylazetidin-1-yl)methyl)thiazol-2-yl)acetamide] belongs 0.011 µM.
To `COc1cc(NCC2CN(Cc3cnc(NC(C)=O)s3)C2)ccn1` [Example 2-25, N-(5-((3-(((2-methoxypyridin-4-yl)amino)methyl)azetidin-1-yl)methyl)thiazol-2-yl)acetamide] belongs 0.61 µM; to `COc1cc(NC2CN(Cc3cnc(NC(C)=O)s3)C2)ncn1` [Example 2-11], 0.407 µM; to `CC(=O)Nc1ncc(CN2CC(c3ncnc4sccc34)C2)s1` [Example 5-2], 0.194 µM.
Regarding `CC(=O)Nc1ncc(CN2C[C@H](Oc3ccc(F)cn3)[C@H]2C)s1` [Example 2-9, N-(5-(((2R,3S)-3-((5-fluoropyridin-2-yl)oxy)-2-methylazetidin-1-yl)methyl)thiazol-2-yl)acetamide], the IC50 is 0.17 µM.
To `CC(=O)Nc1ncc(CN2CC(Nc3ccc(F)cn3)C2)s1` [Example 2-14, N-(5-((3-((5-fluoropyridin-2-yl)amino)azetidin-1-yl)methyl)thiazol-2-yl)acetamide] belongs 0.13 µM.
To `CC(=O)Nc1ncc(CN2CC(COc3cc(C)nc(C)n3)C2)s1` [Example 2-21, N-(5-((3-(((2,6-dimethylpyrimidin-4-yl)oxy)methyl)azetidin-1-yl)methyl)thiazol-2-yl)acetamide] belongs 1.3 µM.
In the case of `CCOc1cc(CC2CN(Cc3cnc(NC(C)=O)s3)C2)ccn1` [Example 4-1, N-(5-((3-((2-ethoxypyridin-4-yl)methyl)azetidin-1-yl)methyl)thiazol-2-yl)acetamide] it was 0.047 µM; in that of `CC(=O)Nc1ncc(CN2C[C@@H](Nc3ccc(C#N)cn3)[C@H]2C)s1` [Example 2-18, N-(5-(((2R,3R)-3-((5-cyanopyridin-2-yl)amino)-2-methylazetidin-1-yl)methyl)thiazol-2-yl)acetamide], 0.57 µM.

The values above are taken from patent publication US12421224B2 (BIOGEN MA INC., priority 2019, dated 2025).
